Test system: 349418-098-R-PDC complex spheroid viability
Experiment: Anticancer human tumor 349418-098-R-PDC patient-derived lung adenocarcinoma cell line growth inhibition [RAS]
Conditions: for viability, T/C: stronger effect = lower value; active means viability on the fitted dose curve at most 10% of control; inactive means the rest
In short: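 Agents were tested in combination matrices in half-log decrements from a top concentration at or near clinical Cmax (10 microM if undetermined). Targets were multi-cell spheroids of tumour lines plus HUVEC and MSC stromal cells.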

[1] = curve of first compound, second compound 0.00316 µM
[2] = curve of first compound, second compound 0.01 µM
[3] = curve of first compound, second compound 0.0316 µM
[4] = curve of first compound, second compound 0.1 µM
[5] = curve of first compound, second compound 0.316 µM
[6] = curve of first compound, second compound 1 µM
[7] = second compound 0.00316 µM, first compound 0.0316 µM
[8] = second compound 0.00316 µM, first compound 0.1 µM
[9] = second compound 0.00316 µM, first compound 0.316 µM
[10] = second compound 0.00316 µM, first compound 1 µM
[11] = second compound 0.00316 µM, first compound 3.16 µM
[12] = second compound 0.00316 µM, first compound 10 µM
[13] = second compound 0.01 µM, first compound 0.0316 µM
[14] = second compound 0.01 µM, first compound 0.1 µM
[15] = second compound 0.01 µM, first compound 0.316 µM
[16] = second compound 0.01 µM, first compound 1 µM
[17] = second compound 0.01 µM, first compound 3.16 µM
[18] = second compound 0.01 µM, first compound 10 µM
[19] = second compound 0.0316 µM, first compound 0.0316 µM
[20] = second compound 0.0316 µM, first compound 0.1 µM
[21] = second compound 0.0316 µM, first compound 0.316 µM
[22] = second compound 0.0316 µM, first compound 1 µM
[23] = second compound 0.0316 µM, first compound 3.16 µM
[24] = second compound 0.0316 µM, first compound 10 µM
[25] = second compound 0.1 µM, first compound 0.0316 µM
[26] = second compound 0.1 µM, first compound 0.1 µM
[27] = second compound 0.1 µM, first compound 0.316 µM
[28] = second compound 0.1 µM, first compound 1 µM
[29] = second compound 0.1 µM, first compound 3.16 µM
[30] = second compound 0.1 µM, first compound 10 µM
[31] = second compound 0.316 µM, first compound 0.0316 µM
[32] = second compound 0.316 µM, first compound 0.1 µM
[33] = second compound 0.316 µM, first compound 0.316 µM
[34] = second compound 0.316 µM, first compound 1 µM
[35] = second compound 0.316 µM, first compound 3.16 µM
[36] = second compound 0.316 µM, first compound 10 µM
[37] = second compound 1 µM, first compound 0.0316 µM
[38] = second compound 1 µM, first compound 0.1 µM
[39] = second compound 1 µM, first compound 0.316 µM
[40] = second compound 1 µM, first compound 1 µM
[41] = second compound 1 µM, first compound 3.16 µM
[42] = second compound 1 µM, first compound 10 µM
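Further: spheroids exposed to compound for seven days before viability readout.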

CC(Nc1ccc2c(c1)OCCn1cc(N3C(=O)OCC3C(F)F)nc1-2)C(N)=O (stereo unspecified) + C=CC(=O)N1CCN(c2nc(OCC3CCCN3C)nc3c(F)c(-c4nc(N)cc(C)c4C(F)(F)F)c(Cl)cc23)C(C)C1
active: viability, T/C [18] 8.95%
114 nM: IC50 [4]
57.8 nM: IC50 [5]
129 nM: IC50 [6]
inactive: viability, T/C [7] 66% | viability, T/C [8] 44.4% | viability, T/C [9] 23.6% | viability, T/C [10] 16.7% | viability, T/C [11] 14.8% | viability, T/C [12] 9.03% | viability, T/C [13] 82% | viability, T/C [14] 57.6% | viability, T/C [15] 36.1% | viability, T/C [16] 17.8% | viability, T/C [17] 14.9% | viability, T/C [19] 91% | viability, T/C [20] 69.8% | viability, T/C [21] 36% | viability, T/C [22] 17.1% | viability, T/C [23] 12.2% | viability, T/C [24] 13% | viability, T/C [25] 46.2% | viability, T/C [26] 58.9% | viability, T/C [27] 30% | viability, T/C [28] 19.3% | viability, T/C [29] 17.6% | viability, T/C [30] 11.4% | viability, T/C [31] 55.8% | viability, T/C [32] 44.9% | viability, T/C [33] 30.3% | viability, T/C [34] 19.4% | viability, T/C [35] 14% | viability, T/C [36] 10.7% | viability, T/C [37] 61.2% | viability, T/C [38] 57.3% | viability, T/C [39] 28.4% | viability, T/C [40] 24.4% | viability, T/C [41] 16.6% | viability, T/C [42] 11.3%
195 nM: IC50 [3]
149 nM: IC50 [2]
72.4 nM: IC50 [1]

CCn1c(-c2cc(N3CCN(C)CC3)cnc2C(C)OC)c2c3cc(ccc31)-c1csc(n1)CC(NC(=O)C1CC1C)C(=O)N1CCCC(N1)C(=O)OCC(C)(C)C2 (stereo unspecified)
> 300 nM: IC50 (compound alone, run of 05/20/2024)
inactive: viability, T/C (compound 0.000949 µM) 108% [middle of 8 runs] | viability, T/C (compound 0.003 µM) 103% [middle of 8 runs] | viability, T/C (compound 0.03 µM) 105% [middle of 8 runs] | viability, T/C (compound 0.0949 µM) 111% [middle of 8 runs]

CC(=O)OC12COC1CC(O)C1(C)C(=O)C(O)C3=C(C)C(OC(=O)C(O)C(NC(=O)OC(C)(C)C)c4ccccc4)CC(O)(C(OC(=O)c4ccccc4)C21)C3(C)C (stereo unspecified) + C=CC(=O)N1CCN(c2nc(OCC3CCCN3C)nc3c(F)c(-c4nc(N)cc(C)c4C(F)(F)F)c(Cl)cc23)C(C)C1
inactive: viability, T/C [7] 12.6% | viability, T/C [8] 17.8% | viability, T/C [9] 16.3% | viability, T/C [10] 20.1% | viability, T/C [11] 23.8% | viability, T/C [12] 23.6% | viability, T/C [13] 12.8% | viability, T/C [14] 16.6% | viability, T/C [15] 14.5% | viability, T/C [16] 20.7% | viability, T/C [17] 19.3% | viability, T/C [18] 19.1% | viability, T/C [19] 16.9% | viability, T/C [20] 15.2% | viability, T/C [21] 15.4% | viability, T/C [22] 22.6% | viability, T/C [23] 22.9% | viability, T/C [24] 26.5% | viability, T/C [25] 13% | viability, T/C [26] 15% | viability, T/C [27] 16.5% | viability, T/C [28] 16.1% | viability, T/C [29] 24.3% | viability, T/C [30] 21.4% | viability, T/C [31] 16.8% | viability, T/C [32] 18.1% | viability, T/C [33] 18.2% | viability, T/C [34] 18.2% | viability, T/C [35] 21.6% | viability, T/C [36] 25.6% | viability, T/C [37] 13.8% | viability, T/C [38] 12% | viability, T/C [39] 18.8% | viability, T/C [40] 20.2% | viability, T/C [41] 20.2% | viability, T/C [42] 25.8%
< 31.6 nM: IC50 [1] | IC50 [2] | IC50 [3] | IC50 [4] | IC50 [5] | IC50 [6]

C[C@@H](NC(=O)c1ncnc(N)c1Cl)c1ncc(C(=O)Nc2cc(C(F)(F)F)c(Cl)cn2)s1 + CCn1c(-c2cc(N3CCN(C)CC3)cnc2C(C)OC)c2c3cc(ccc31)-c1csc(n1)CC(NC(=O)C1CC1C)C(=O)N1CCCC(N1)C(=O)OCC(C)(C)C2
687 nM: IC50 (curve of first compound, second compound 0.0949 µM)
915 nM: IC50 (curve of first compound, second compound 0.3 µM)
1340 nM: IC50 (curve of first compound, second compound 0.000949 µM)
inactive: viability, T/C (second compound 0.000949 µM, first compound 0.0316 µM) 105% | viability, T/C (second compound 0.000949 µM, first compound 0.1 µM) 85.8% | viability, T/C (second compound 0.000949 µM, first compound 0.316 µM) 77.9% | viability, T/C (second compound 0.000949 µM, first compound 1 µM) 58.2% | viability, T/C (second compound 0.000949 µM, first compound 3.16 µM) 30.6% | viability, T/C (second compound 0.000949 µM, first compound 10 µM) 17.3% | viability, T/C (second compound 0.003 µM, first compound 0.0316 µM) 102% | viability, T/C (second compound 0.003 µM, first compound 0.1 µM) 93.6% | viability, T/C (second compound 0.003 µM, first compound 0.316 µM) 72.5% | viability, T/C (second compound 0.003 µM, first compound 1 µM) 54.5% | viability, T/C (second compound 0.003 µM, first compound 3.16 µM) 29.7% | viability, T/C (second compound 0.003 µM, first compound 10 µM) 18.7% | viability, T/C (second compound 0.00949 µM, first compound 0.0316 µM) 106% | viability, T/C (second compound 0.00949 µM, first compound 0.1 µM) 90.4% | viability, T/C (second compound 0.00949 µM, first compound 0.316 µM) 81.1% | viability, T/C (second compound 0.00949 µM, first compound 1 µM) 49% | viability, T/C (second compound 0.00949 µM, first compound 3.16 µM) 23.2% | viability, T/C (second compound 0.00949 µM, first compound 10 µM) 12.5% | viability, T/C (second compound 0.03 µM, first compound 0.0316 µM) 103% | viability, T/C (second compound 0.03 µM, first compound 0.1 µM) 88% | viability, T/C (second compound 0.03 µM, first compound 0.316 µM) 87.4% | viability, T/C (second compound 0.03 µM, first compound 1 µM) 40% | viability, T/C (second compound 0.03 µM, first compound 3.16 µM) 23.1% | viability, T/C (second compound 0.03 µM, first compound 10 µM) 11.4% | viability, T/C (second compound 0.0949 µM, first compound 0.0316 µM) 102% | viability, T/C (second compound 0.0949 µM, first compound 0.1 µM) 89.6% | viability, T/C (second compound 0.0949 µM, first compound 0.316 µM) 79.3% | viability, T/C (second compound 0.0949 µM, first compound 1 µM) 35% | viability, T/C (second compound 0.0949 µM, first compound 3.16 µM) 20.2% | viability, T/C (second compound 0.0949 µM, first compound 10 µM) 11.8% | viability, T/C (second compound 0.3 µM, first compound 0.0316 µM) 104% | viability, T/C (second compound 0.3 µM, first compound 0.1 µM) 93.2% | viability, T/C (second compound 0.3 µM, first compound 0.316 µM) 69.9% | viability, T/C (second compound 0.3 µM, first compound 1 µM) 51.8% | viability, T/C (second compound 0.3 µM, first compound 3.16 µM) 23.2% | viability, T/C (second compound 0.3 µM, first compound 10 µM) 12.5%
976 nM: IC50 (curve of first compound, second compound 0.00949 µM)
1120 nM: IC50 (curve of first compound, second compound 0.003 µM)
806 nM: IC50 (curve of first compound, second compound 0.03 µM)

Reference: PubChem BioAssay AID2060904 (Molecular Pharmacology Branch, DTP, NCI, 2025)
